Source: patent US11261180B2, “Cyclohexyl acid isoxazole azoles as LPA antagonists” (Bristol-Myers Squibb Company, priority 2017, dated 2022)
One block for each molecule: values may come before it.

How the values were obtained:
LPA1 [1] = target: T1, LPA1 (Homo sapiens, UniProt Q92633); set-up: host or cells: IPF patients (in vivo); conditions: 26-week clinical trial, IPF patients; cited from earlier work
LPA1 [2] = target: T1, LPA1; assay: LPA1 functional antagonist assay (calcium flux in CHO cells overexpressing human LPA1); format: cell-based; set-up: expressed in transfected cells; host or cells: Chinese hamster ovary (CHO) cells; conditions: CHO cells overexpressing human LPA1, calcium flux induced by 10 nM LPA; read-out: hLPA1 IC50
Protocol: The effectiveness of compounds of the present invention as LPA1 inhibitors can be determined in an LPA1 functional antagonist assay as follows:
Chinese hamster ovary cells overexpressing human LPA1 were plated overnight (15,000 cells/well) in poly-D-lysine coated 384-well microplates (Greiner bio-one, Cat #781946) in DMEM/F12 medium (Gibco, Cat #11039). Following overnight culture, cells were loaded with calcium indicator dye (AAT Bioquest Inc, Cat #34601) for 30 minutes at 37° C. The cells were then equilibrated to room temperature for 30 minutes before the assay. Test compounds solubilized in DMSO were transferred to 384 well non-binding surface plates (Corning, Cat #3575) using the Labcyte Echo acoustic dispense and diluted with assay buffer [[…] with calcium/magnesium (Gibco Cat #14025-092), 20 mM HEPES (Gibco Cat #15630-080) and 0.1% fatty acid free BSA (Sigma Cat #A9205)] to a final concentration of 0.5% DMSO. Diluted compounds were added to the cells by FDSS6000 (Hamamatsu) at final concentrations ranging from 0.08 nM to 5 μM. and were then incubated for 20 min at room temperature at which time LPA (Avanti Polar Lipids Cat #857130C) was added at final concentrations of 10 nM to stimulate the cells. The compound IC50 value was defined as the concentration of test compound which inhibited 50% of the calcium flux induced by LPA alone. IC50 values were determined by fitting data to a 4-parameter logistic equation (GraphPad Prism, San Diego Calif.).

nerve-injured mice = conditions: pretreatment; cited from earlier work
[3] = tested on: highly peritoneal metastatic pancreatic cancer cell line; conditions: cited from earlier work
[4] = tested on: human foetal lung fibroblasts; conditions: cited from earlier work
UUO mice = conditions: compared with LPA1 (-/-) mice; cited from earlier work
[5] = tested on: pancreatic cancer cell lines; conditions: cited from earlier work
CTGF = conditions: MCT cells, co-treatment with LPA; cited from earlier work

T1 sequence (Q92633 whole entry): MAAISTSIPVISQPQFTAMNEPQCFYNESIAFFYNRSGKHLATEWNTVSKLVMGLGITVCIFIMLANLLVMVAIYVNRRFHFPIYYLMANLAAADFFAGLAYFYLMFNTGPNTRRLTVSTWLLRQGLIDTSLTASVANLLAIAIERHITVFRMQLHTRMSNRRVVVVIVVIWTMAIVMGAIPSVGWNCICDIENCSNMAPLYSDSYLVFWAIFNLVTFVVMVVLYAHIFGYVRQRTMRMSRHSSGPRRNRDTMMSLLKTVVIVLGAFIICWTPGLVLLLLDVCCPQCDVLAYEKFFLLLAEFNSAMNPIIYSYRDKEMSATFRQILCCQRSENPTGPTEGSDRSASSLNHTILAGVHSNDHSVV

Compound: Cc1noc(-c2ccc(-c3ccc(C4(C(=O)O)CC4)cc3)cc2)c1NC(=O)O[C@H](C)c1ccccc1 [BMS-986020]
- rate of FVC (forced vital capacity) decline (LPA1 [1]): significantly reduce the rate of FVC (forced vital capacity) decline

Compound: CCCc1nnc(NCc2c(C)noc2-c2ccc(O[C@H]3CCC[C@H](C(=O)O)C3)cn2)s1 [Example 1, (1S,3S)-3-((6-(3-methyl-4-(((5-propyl-1,3,4-thiadiazol-2-yl)amino)methyl)isoxazol-5-yl)pyridin-3-yl)oxy)cyclohexane-1-carboxylic Acid]
- IC50 (LPA1 [2]): 2470 nM

Compound: Cc1noc(-c2ccc(O[C@H]3CCC[C@H](C(=O)O)C3)cn2)c1CNc1ncc(-c2ccccc2)s1 [Example 3, (1S,3S)-3-((6-(3-methyl-4-(((5-phenyl-thiazol-2-yl)amino)methyl)isoxazol-5-yl)pyridin-3-yl)oxy) cyclohexane-1-carboxylic acid]
- IC50 (LPA1 [2]): 712 nM

Compound: C[C@@H](N)[C@H]1CC[C@H](C(=O)Nc2ccncc2)CC1 [Example Y-27632]
- allodynia and hyperalgesia (nerve-injured mice): completely abolished

Compound: Cc1noc(-c2ccc(CSCCC(=O)O)cc2)c1NC(=O)OC(C)c1ccccc1Cl (centres unmarked) [Ki16425]
- LPA-induced and ascites-induced invasion activity [3]: blocked
- chemotaxis of human foetal lung fibroblasts induced by BAL from IPF patients [4]: blocked
- increased fibroblast chemotactic activity in bronchoalveolar lavage samples of IPF subjects [4]: inhibited
- renal fibrosis profile in UUO mice (UUO mice): closely resembled the profile of LPA1 (−/−) mice
- in vitro migration in response to LPA and peritoneal fluid (ascites) from pancreatic cancer patients [5]: effectively blocked
- LPA induction of CTGF expression (CTGF): almost completely suppressed

Further lines, results first:

- IC50 (LPA1 [2]): 153 nM
Compound: Cc1noc(-c2ccc(O[C@H]3CCC[C@H](C(=O)O)C3)cn2)c1CNc1nc(-c2ccccc2)ns1 [Example 4, (1S,3S)-3-((6-(3-methyl-4-(((3-phenyl-1,2,4-thiadiazol-5-yl)amino)methyl)isoxazol-5-yl)pyridin-3-yl)oxy) cyclohexane-1-carboxylic acid]

- IC50 (LPA1 [2]): 41 nM
Compound: Cc1nc(NCc2c(C)noc2-c2ccc(O[C@H]3CCC[C@H](C(=O)O)C3)cn2)sc1-c1ccccc1 [Example 5]

- IC50 (LPA1 [2]): 486 nM
Compound: Cc1noc(-c2ccc(O[C@H]3CCC[C@H](C(=O)O)C3)cn2)c1CNc1ncc(C(F)(F)F)s1 [Example 6, (1S,3S)-3-((6-(3-methyl-4-(((5-(trifluoromethyl)thiazol-2-yl)amino)methyl)isoxazol-5-yl)pyridin-3-yl)oxy)cyclohexane-1-carboxylic acid]

- IC50 (LPA1 [2]): 29 nM
Compound: Cc1nc(-c2onc(C)c2CNc2ncn(-c3ccccc3)n2)ccc1O[C@H]1CCC[C@H](C(=O)O)C1 [Example 7]
